Experiment: Glutathione (GSH)-triggered doxorubicin release followed by fluorescence
Assay type: physicochemical
Conditions: Dox solution in brine 0.9% + GSH 10 mM
Protocol: Release of the encapsulated compound: The amount of released dye was followed at RT by fluorescence spectroscopy (Hitachi F7000 spectrometer). […] The λex excitation wavelength was set at 480 nm and the emission λem spectra were recorded from 490 to 720 nm. The instrument was used in scan mode, with excitation slit set to 5 nm and emission slit set to 5 nm.
The liberation of doxorubicin was followed by monitoring the fluorescence. Fluorescence spectra were collected by excitation at λex=470 nm wavelength and reading at λem=600 nm. In order to quantify the encapsulated drug, a method for the quantitative liberation was needed. Different methods, such as solvolysis, photolysis, addition of redox agents (sodium dithionite, mercaptoethanol, sodium thiosulfate, glutathione) were tested and are discussed as follows.
In parallel, Quino-Ps-DOX (50 μL) was treated with the […] glutathione (GSH) in its reduced form, 1 μL at c=10 mM in brine (0.9% (v/w). The concentration of the GSH was set to 10 mM in order to be compatible with the highest intracellular level (FIG. 5).
The amount of the liberated drug was quantified by fluorescence (λex=470 nm and λem=600 nm), by using a calibration curve (FIG. 6) ([…] (R^2=0.9911)). […]

Compound: COc1cccc2c1C(=O)c1c(O)c3c(c(O)c1C2=O)C[C@@](O)(C(=O)CO)C[C@@H]3O[C@H]1C[C@H](N)[C@H](O)[C@H](C)O1 [doxorubicin]
- fluorescence intensity of free doxorubicin treated with GSH (stability control): no change in the fluorescence intensity

Source: patent US20230093684A1, “STIMULI - OR BIO- RESPONSIVE COPOLYMERS, THE POLYMERSOMES COMPRISING THE SAME AND THEIR USE IN DRUG DELIVERY” (CENTRE NATIONAL DE LA RECHERCHE SCIENTIFIQUE, priority 2019, published 2023)
